Measured values reported in article PMC9578396, “Intrinsic Antibacterial Activity of Xeruborbactam In Vitro: Assessing Spectrum and Mode of Action” (Antimicrobial Agents and Chemotherapy, 2022).
Values joined by “and” are separate entries in the source; they are usually repeats but may differ in a detail not shown here. Identical values can stand only once. Like-named read-outs stand apart in the source and are kept apart here.

Key:
Assay type in all cases: cell-based
Escherichia coli = test: Broth microdilution MIC (CLSI), Escherichia coli
Method in brief: (§1)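 MICs by CLSI broth microdilution in in-house panels. Strains tested were engineered strains carrying porin and efflux mutation combinations, KPC-producing clinical isolates and derivatives cured of KPC plasmids, and KPC-producing clinical isolates enriched for porin mutations.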

Pseudomonas aeruginosa = test: Broth microdilution MIC (CLSI), Pseudomonas aeruginosa; conditions: for MIC50 / MIC90 / MIC: Pseudomonas aeruginosa; for MIC50 / MIC90: 506 isolates
Method in brief: as §1

Acinetobacter baumannii = test: Broth microdilution MIC (CLSI), Acinetobacter baumannii
Method in brief: as §1

Staphylococcus aureus = test: MIC, Staphylococcus aureus (MSSA, MRSA); conditions: for MIC: read-out: MIC
From the text: Bacterial isolates were subjected to broth microdilution susceptibility testing, performed according to Clinical and Laboratory Standards Institute (CLSI) methods ([46]), using panels prepared in-house. Meropenem was purchased from Sandoz, and all other antibiotics were from Sigma-Aldrich. Xeruborbactam was synthesized at Qpex Biopharma, San Diego, CA. Avibactam was purchased from eNovation Chemicals LLC, Bridgewater, NJ, USA; zidebactam was from MedKoo Biosciences, Inc., Morrisville, NC, and nacubactam was from Advanced ChemBlocks, Hayward, CA. Durlobactam was synthesized at Acme Bioscience, Palo Alto, CA, USA.

[1] = Carbapenem-resistant Acinetobacter baumannii, 505 isolates
[2] = Staphylococcus aureus, MSSA, n = 12

O=C(O)c1c(F)ccc2c1OB(O)[C@@H]1C[C@H]21 [Xeruborbactam]
32: MIC (Escherichia coli; EC1078, PBP2 same as MG1655, PBP3 I332V) | MIC (Escherichia coli; EC1119, PBP2 same as MG1655, PBP3 YRIN ins, Q227H, E349K, I532L)
4 fold: fold MIC decrease (Acinetobacter baumannii; adeIJK inactivation)
94%: isolates with MICs of ≥64 μg/mL (Pseudomonas aeruginosa; 506 P. aeruginosa clinical isolates)
2 fold: fold MIC decrease (Pseudomonas aeruginosa; mexCD-oprJ-overexpressing strain PAM1033) | fold MIC increase (Acinetobacter baumannii; adeIJK overexpression)
16 fold: fold reduction of MIC (Pseudomonas aeruginosa; inactivation of MexAB-OprM)
> 32 mg/L: MIC (Staphylococcus aureus; Staphylococcus aureus, MRSA, all the MRSA strains, n = 13) | MIC (Staphylococcus aureus; Staphylococcus aureus, MRSA, sa001, MRSA) | MIC (Staphylococcus aureus; Staphylococcus aureus, MRSA, sa010, MRSA) | MIC (Staphylococcus aureus; Staphylococcus aureus, MRSA, sa013, MRSA) | MIC (Staphylococcus aureus; Staphylococcus aureus, MRSA, sa014, MRSA) | MIC (Staphylococcus aureus; Staphylococcus aureus, MRSA, sa148, MRSA) | MIC (Staphylococcus aureus; Staphylococcus aureus, MRSA, sa150, MRSA) | MIC (Staphylococcus aureus; Staphylococcus aureus, MRSA, sa151, MRSA) | MIC (Staphylococcus aureus; Staphylococcus aureus, MRSA, sa152, MRSA) | MIC (Staphylococcus aureus; Staphylococcus aureus, MRSA, sa153, MRSA) | MIC (Staphylococcus aureus; Staphylococcus aureus, MRSA, sa278, MRSA) | MIC (Staphylococcus aureus; Staphylococcus aureus, MRSA, sa279, MRSA) | MIC (Staphylococcus aureus; Staphylococcus aureus, MRSA, sa280, MRSA) | MIC (Staphylococcus aureus; Staphylococcus aureus, MRSA, sa281, MRSA)
256 mg/L: MIC (Pseudomonas aeruginosa; before inactivation of MexAB-OprM (wild type), read-out: MIC) | MIC (Pseudomonas aeruginosa; strain PAM1020, wild type, read-out: MIC) | MIC (Pseudomonas aeruginosa; strain PAM1034, nfxC (MexEF-OprN overexpression))
8 mg/L: MIC50 (Escherichia coli; Escherichia coli, 334 isolates) | MIC (Escherichia coli; Escherichia coli, clinical isolate EC1081, OmpK35 FN, OmpK36 FN, read-out: MIC) | MIC (Escherichia coli; Escherichia coli, clinical isolate EC1085, OmpK35 FN, OmpK36 FN, read-out: MIC) | MIC (Escherichia coli; Escherichia coli, clinical isolate EC1088, OmpK35 FN, OmpK36 FN, read-out: MIC) | MIC (Escherichia coli; Escherichia coli, clinical isolate EC1097, OmpK35 FN, OmpK36 FN, read-out: MIC) | MIC (Escherichia coli; Escherichia coli, clinical isolate EC1098, OmpK35 NF, OmpK36 FN, read-out: MIC) | MIC (Escherichia coli; Escherichia coli, clinical isolate EC1121, OmpK35 NF, OmpK36 FN, read-out: MIC) | MIC (Escherichia coli; Escherichia coli, strain ECM5497, wild type, read-out: MIC) | MIC (Escherichia coli; Escherichia coli, strain ECM6001, ΔacrB) | MIC (Escherichia coli; Escherichia coli, strain ECM6502, marR (AcrAB overexpression)) | MIC (Escherichia coli; Escherichia coli, strain ECM5497, read-out: MIC) | MIC (Pseudomonas aeruginosa; strain 1097436, alone, read-out: MIC) | MIC (Pseudomonas aeruginosa; strain 1104284, alone, read-out: MIC) | MIC (Pseudomonas aeruginosa; strain 1113238, alone, read-out: MIC) | MIC (Pseudomonas aeruginosa; strain 1113634, alone, read-out: MIC) | MIC (Pseudomonas aeruginosa; strain 1114012, alone, read-out: MIC) | MIC (Pseudomonas aeruginosa; strain 1116835, alone, read-out: MIC) | MIC (Pseudomonas aeruginosa; strain 1119418, alone, read-out: MIC) | MIC (Pseudomonas aeruginosa; strain 1126521, alone, read-out: MIC) | MIC (Pseudomonas aeruginosa; strain 1126957, alone, read-out: MIC) | MIC (Pseudomonas aeruginosa; strain 1131123, alone, read-out: MIC) | MIC (Staphylococcus aureus; Staphylococcus aureus, MSSA, sa002, MSSA) | MIC (Staphylococcus aureus; Staphylococcus aureus, MSSA, sa003, MSSA) | MIC (Staphylococcus aureus; Staphylococcus aureus, MSSA, sa004, MSSA) | MIC (Staphylococcus aureus; Staphylococcus aureus, MSSA, sa005, MSSA) | MIC (Staphylococcus aureus; Staphylococcus aureus, MSSA, sa006, MSSA) | MIC (Staphylococcus aureus; Staphylococcus aureus, MSSA, sa007, MSSA) | MIC (Staphylococcus aureus; Staphylococcus aureus, MSSA, sa008, MSSA) | MIC (Staphylococcus aureus; Staphylococcus aureus, MSSA, sa009, MSSA) | MIC (Staphylococcus aureus; Staphylococcus aureus, MSSA, sa011, MSSA) | MIC (Staphylococcus aureus; Staphylococcus aureus, MSSA, sa012, MSSA) | MIC (Staphylococcus aureus; Staphylococcus aureus, MSSA, sa015, MSSA) | MIC50 (Staphylococcus aureus; [2]) | MIC90 (Staphylococcus aureus; [2])
64 mg/L: MIC90 (Acinetobacter baumannii; [1])
16 µg/mL and 72 µM: MIC (Pseudomonas aeruginosa; PAO1, Pseudomonas aeruginosa PAM3034 (PAO1), read-out: MIC)
16 µg/mL: MIC (Acinetobacter baumannii; Acinetobacter baumannii ACM1320 (ATCC 17978)) | MIC (Acinetobacter baumannii; Acinetobacter baumannii, AB1007 (no beta-lactamase), xeruborbactam 0 µg/ml, read-out: MIC) | MIC (Acinetobacter baumannii; Acinetobacter baumannii, ATCC17978, strain ATCC 17978 (Fig. 6), read-out: MIC) | MIC (Acinetobacter baumannii; Acinetobacter baumannii, strain AB1007, wild type, read-out: MIC) | MIC (Acinetobacter baumannii; Acinetobacter baumannii, strain ACM1014, ΔadeABC) | MIC (Acinetobacter baumannii; Acinetobacter baumannii, strain ACM1030, adeS (AdeABC overexpression)) | MIC (Acinetobacter baumannii; Acinetobacter baumannii, strain AB1007, read-out: MIC)
4 mg/L: MIC (Staphylococcus aureus; Staphylococcus aureus, ATCC 29213 / MSSA, ATCC 29213, MSSA)
72 µM: MIC (Acinetobacter baumannii; Acinetobacter baumannii ACM1320 (ATCC 17978), read-out: MIC)
>64 mg/L: MIC50 (Pseudomonas aeruginosa) | MIC90 (Pseudomonas aeruginosa)
32 µg/mL: MIC (Acinetobacter baumannii; Acinetobacter baumannii, 505 isolates of carbapenem-resistant A. baumannii, read-out: modal MIC) | MIC (Acinetobacter baumannii; Acinetobacter baumannii, strain ACM1027, adeN (AdeIJK overexpression))
> 256 mg/L: MIC (Pseudomonas aeruginosa; strain PAM1032, nalB (MexAB-OprM overexpression))
16 mg/L: MIC90 (Escherichia coli; Escherichia coli, 334 isolates) | MIC (Pseudomonas aeruginosa; PAM1154 (oprM::Hg), xeruborbactam 0 µg/ml) | MIC (Pseudomonas aeruginosa; after inactivation of MexAB-OprM, read-out: MIC) | MIC (Pseudomonas aeruginosa; strain 1089003, alone, read-out: MIC) | MIC (Pseudomonas aeruginosa; strain 1098084, alone, read-out: MIC) | MIC (Pseudomonas aeruginosa; strain 1104100, alone, read-out: MIC) | MIC (Pseudomonas aeruginosa; strain 1106973, alone, read-out: MIC) | MIC (Pseudomonas aeruginosa; strain 1108885, alone, read-out: MIC) | MIC (Pseudomonas aeruginosa; strain 1109744, alone, read-out: MIC) | MIC (Pseudomonas aeruginosa; strain 1116849, alone, read-out: MIC) | MIC (Pseudomonas aeruginosa; strain 1118234, alone, read-out: MIC) | MIC (Pseudomonas aeruginosa; strain 1124145, alone, read-out: MIC) | MIC (Pseudomonas aeruginosa; strain 1128674, alone, read-out: MIC) | MIC (Pseudomonas aeruginosa; strain 1130387, alone, read-out: MIC) | MIC (Pseudomonas aeruginosa; strain 1130447, alone, read-out: MIC) | MIC (Pseudomonas aeruginosa; strain 1130475, alone, read-out: MIC) | MIC (Pseudomonas aeruginosa; strain PAM1106, mexA::Tet) | MIC (Pseudomonas aeruginosa; strain PAM1154, oprM::Hg) | MIC (Pseudomonas aeruginosa; strain PAM1154, read-out: MIC) | MIC50 (Acinetobacter baumannii; [1])
72 µM and 16 µg/mL: MIC (Escherichia coli; Escherichia coli, MG1655, Escherichia coli ECM5497 (MG1655), read-out: MIC) | MIC (Acinetobacter baumannii; Acinetobacter baumannii, ATCC17978, Acinetobacter baumannii ACM1320 (ATCC 17978), read-out: MIC)
4 to 8 mg/L: MIC range (Staphylococcus aureus; MSSA, n = 12)
8: MIC (Escherichia coli; EC1081, PBP2 same as MG1655, PBP3 Q227H) | MIC (Escherichia coli; EC1085, PBP2 T331P, PBP3 A233T I332V) | MIC (Escherichia coli; EC1088, PBP2 A308G, PBP3 same as MG1655) | MIC (Escherichia coli; EC1097, PBP2 M574I, PBP3 Q227H) | MIC (Escherichia coli; EC1098, PBP2 V217M, PBP3 YRIN ins, I532L) | MIC (Escherichia coli; EC1103, PBP2 same as MG1655, PBP3 YRIN ins, Q227H, E349K, I532L) | MIC (Escherichia coli; EC1105, PBP2 A543T, PBP3 YRIN ins, Q227H, E349K, I532L) | MIC (Escherichia coli; EC1121, PBP2 V217M, PBP3 YRIN ins, E349K, I532L)
128 mg/L: MIC (Pseudomonas aeruginosa; strain PAM1033, nfxB (MexCD-OprJ overexpression))
32 mg/L: MIC (Escherichia coli; Escherichia coli, Escherichia coli isolates, read-out: highest MIC observed) | MIC (Escherichia coli; Escherichia coli, clinical isolate EC1078, OmpK35 NF, OmpK36 NF, read-out: MIC) | MIC (Escherichia coli; Escherichia coli, clinical isolate EC1119, OmpK35 NF, OmpK36 NF, read-out: MIC) | MIC (Pseudomonas aeruginosa; strain 1098916, alone, read-out: MIC) | MIC (Pseudomonas aeruginosa; strain 1100407, alone, read-out: MIC) | MIC (Pseudomonas aeruginosa; strain 1104168, alone, read-out: MIC) | MIC (Pseudomonas aeruginosa; strain 1125954, alone, read-out: MIC) | MIC (Pseudomonas aeruginosa; strain 1125996, alone, read-out: MIC) | MIC (Pseudomonas aeruginosa; strain 1126982, alone, read-out: MIC) | MIC (Pseudomonas aeruginosa; strain 1128636, alone, read-out: MIC) | MIC (Pseudomonas aeruginosa; strain PAM1154 (Fig. 6), read-out: MIC)
4 µg/mL: MIC (Acinetobacter baumannii; Acinetobacter baumannii, strain ACM1013, ΔadeIJK) | MIC (Acinetobacter baumannii; Acinetobacter baumannii, strain ACM1015, ΔadeIJK ΔadeABC)
> 64 mg/L: MIC50 (Pseudomonas aeruginosa; read-out: MIC50) | MIC90 (Pseudomonas aeruginosa; read-out: MIC90)
2 to 32 mg/L: MIC range (Escherichia coli; Escherichia coli, 334 isolates)
18 µM and 4 µg/mL: MIC (Acinetobacter baumannii; Acinetobacter baumannii, pumpless strain of A. baumannii, read-out: MIC)
